In patent US8946144B2, “Phosphonated glycopeptide and lipoglycopeptide antibiotics and uses thereof for the prevention and treatment of bone and joint infections” (The Medicines Company, priority 2006, dated 2015):
Converted amounts (≈) assume the structure as drawn.

Experiments:
[1] = test system: S. aureus strain ATCC13709; experiment: Antibacterial susceptibility (MIC) in the presence of 50% serum; format: cell-based; settings: S. aureus ATCC 13709
Description: (§1) Susceptibility of S. aureus strain ATCC13709 to the commercial antibiotics and synthesized compounds was determined by following the guidelines set by the Clinical and Laboratory Standards Institute (formerly the National Committee for Clinical Laboratory Standards) (M26-A). Compounds were diluted two-fold serially in either DMSO (Vancomycin 4, Oritavancin 8, compounds 10, 31, 33, 39, 44, 50, 60, 65), DMF (compounds 18 and 21) or in PBS (compound 6) and transferred to cation-adjusted Mueller Hinton broth (CAMHB; Becton Dickinson). 50 μL of compounds diluted in CAMHB was mixed with […] of bacteria diluted in CAMHB in 96-well microtiter plates. The final number of micro-organisms in the assay was 5×10^5 c.f.u. per mL and the final concentration of DMSO or DMF in the assay, if present, was 1.25%. Assays were set up in duplicate and incubated at 37° C. for 18 h. The concentration of compound that inhibited visible growth was reported as the minimum inhibitory concentration (MIC).
Susceptibility testing experiments were also carried out in the presence of serum. These experiments were carried out similar to the susceptibility testing with the following modifications. 75 μL of compounds diluted in CAMHB was mixed with 75 μL of bacteria diluted in 100% serum from any given source (commercial pooled mouse serum (MS) and human serum (HS), Equitech-Bio Inc.). The final concentration of animal serum in the assay was 50% and the concentrations of all other components were identical to those described for susceptibility testing.

[2] = Regeneration of parent drug from bone powder-bound prodrug; format: in vitro ADME; settings: 24 h incubation, 37° C.
Description: Amounts of parent drug “regenerated” from the phosphonated prodrug were measured as follows. Washed bone powder-bound prodrugs from the above experiment were resuspended in 400 μL PBS+2% DMSO or in 400 μL 50% (v/v in PBS+2% DMSO) human or rat serum. The suspension was incubated overnight at 37° C., centrifuged at 13,000 rpm for 2 min and the supernatant was recovered. The amount of regenerated parent drug in the supernatant was determined by measurements using the microbiological assays that were previously described for the prodrugs themselves. The amount of released drug from prodrug was deduced from standard curves of known amounts of parent drug that were used as reference for each experiment. The amount of regenerated drug assessed by this bioassay was corroborated by MIC determination. The percentage of drug regenerated in PBS or serum after the overnight incubation (Table 2) was deduced from the difference between the amount of bound prodrug and the amount of regenerated drug (not shown).

[3] = test system: S. aureus strain ATCC13709; experiment: Antibacterial susceptibility (MIC) in CAMHB; format: cell-based; settings: S. aureus ATCC 13709; cation adjusted Mueller-Hinton broth; 37° C., 18 h
Description: as §1

Row | SMILES | Minimum inhibitory concentration, CAMHB + 50% Human Serum [1] [mg/L] | Minimum inhibitory concentration, CAMHB + 50% Mouse Serum [1] [mg/L] | Minimum inhibitory concentration, CAMHB + 50% Rat Serum [1] [mg/L] | % Conversion (prodrug converted to parent drug) ([2]; 50% rat serum) [%] | % Conversion (prodrug converted to parent drug) ([2]; PBS) | Minimum inhibitory concentration, CAMHB [3] [mg/L]
1 | CC(C)C[C@H](C(=O)N[C@H]1C(=O)N[C@@H](CC(N)=O)C(=O)N[C@H]2C(=O)N[C@H]3C(=O)N[C@H](C(=O)N[C@H](C(=O)O)c4cc(O)cc(O)c4-c4cc3ccc4O)[C@H](O[C@H]3C[C@](C)(N)[C@@H](O)[C@H](C)O3)c3ccc(c(Cl)c3)Oc3cc2cc(c3O[C@@H]2O[C@H](CO)[C@@H](O)[C@H](O)[C@H]2O[C@H]2C[C@](C)(NCc3ccc(-c4ccc(Cl)cc4)cc3)[C@@H](O)[C@H](C)O2)Oc2ccc(cc2Cl)[C@H]1O)N(C)C(=O)OCOC(=O)CCCC(P(=O)(O)O)P(=O)(O)O [Compound 60] | >32 | 32 | 32 | 0.05 | <LOD | 32 (≈ 15.2 µM)
2 | CC(C)C[C@H](C(=O)N[C@H]1C(=O)N[C@@H](CC(N)=O)C(=O)N[C@H]2C(=O)N[C@H]3C(=O)N[C@H](C(=O)N[C@H](C(=O)O)c4cc(O)cc(O)c4-c4cc3ccc4O)[C@H](O[C@H]3C[C@](C)(N)[C@@H](O)[C@H](C)O3)c3ccc(c(Cl)c3)Oc3cc2cc(c3O[C@@H]2O[C@H](CO)[C@@H](O)[C@H](O)[C@H]2O[C@H]2C[C@](C)(NCc3ccc(-c4ccc(Cl)cc4)cc3)[C@@H](O)[C@H](C)O2)Oc2ccc(cc2Cl)[C@H]1O)N(C)C(=O)OCOC(=O)CCC(P(=O)(O)O)P(=O)(O)O.O=C(O)C(F)(F)F.O=C(O)C(F)(F)F [Compound 65] | 4 | 0.5 | 1 | 26.4 | 0.2% | 8
